Results from paper PMC10873978, “Novel tetrahydroisoquinolines as DHFR and CDK2 inhibitors: synthesis, characterization, anticancer activity and antioxidant properties” (BMC Chemistry, 2024).
“Also recorded” adds a separate entry of the source.

Assays:
MCF7 cell line = test: In vitro cytotoxic activity, MTT method, MCF7; assay type: cell-based, human
Description: (§1) Cell lines: The in vitro human breast cancerous cell line (MCF7), lung cancerous cell lines (A549) and normal cell lines were purchased from Serum and Vaccine formulation in Cairo-Egypt.
(§2) In vitro cytotoxic activity of all synthesized compounds against two human breast cell line (MCF7) and lung cell lines (A549) was evaluated according to the MTT method. Firstly, Growth the cell line medium in 96 well tissue culture plate was injected with 10^5 cells/mL (100 uL/plate well) of the cell line and incubated at 37 °C for 24 h to develop a monolayer sheet then the formed growth medium was poured from 96 well microtiter plates after the confluent sheet of cells. […] Secondly, add 0.1 mL of each concentration tetrahydroisoquinoline sample to each plate. The plates were incubated at 37 °C. Thirdly MTT solution (5 mg/mL in PBS) is prepared. Add 20 µL of MTT solution to each well plates. And shaking in 150 rpm for 5 min, to mix the MTT into the media. Then incubate at (37 °C, 5% CO2) for 1–5 h. Finally read the optical density at 560 nm and subtract background at 620 nm.
(§3) In this work, doxorubicin was used as a positive control drug for comparison with the synthesized compounds under the same experimental conditions.

A549 cell line = test: In vitro cytotoxic activity, MTT method, A549
Description: as §1, §2, §3

[1] = DPPH scavenging antioxidant activity
Description: The antioxidant activity of ten compounds was determined using DPPH [32–34]. A solution 1: prepared by dissolving DPPH (0.002 g) in ethanol (50 mL etnanol). Solution 2: prepared by dissolving different weights 0.05, 0.01 g of each sample in 1 mL of DMSO then take 10 µL of each sample solution with 1 mL ethanol. Then mix 1 mL of solution 1 with 1 mL of solution 2 then vortex the resulting mixture in the dark for about 30 min. The absorbance of the mixture was measured by spectrophotometer at λmax = 517 nm against blank 1 mL absolute ethanol and compared to the ascorbic acid (Vitamin C).
Ten newly synthesized compounds were studied as in vitro antioxidants by measuring of their DPPH scavenging activity which is represented as a percentage % [32]^. Results are represented by mean ± SD of three replicates. […] The higher dose concentration of 0.05 μg/mL represents higher antioxidant activity. […] The high antioxidant activity is referred to the presence of C=O, NH2, and OH groups like ascorbic acid which can be easily oxidized and reduced and can be used as antioxidant drugs. (Fig. 8 and Table 9).

## CSc1nc(C)c2c(c1C#N)CC(C)(O)C(C(C)=O)C2c1ccc(N(C)C)cc1 (stereo not drawn) [Compound 3, 7-Acetyl-4-cyano-1,6-dimethyl-3-methylthio-6-hydroxy-8-(4-N,N-dimethyl-aminophenyl)-5,6,7,8-tetrahydroisoquinoline]
MCF7 cell line; Homo sapiens, MCF7, MCF7 cell line, MTT
  IC50: 562 ± 7 nM
MCF7 cell line; MCF7, 0.0487 µMol
  Toxicity %: 5.124%
  Viability %: 94.876%
MCF7 cell line; MCF7, 0.0975 µMol
  Toxicity %: 7.124%
  Viability %: 92.876%
MCF7 cell line; MCF7, 0.195 µMol
  Toxicity %: 8.333%
  Viability %: 91.67%
MCF7 cell line; MCF7, 0.391 µMol
  Toxicity %: 38.81%
  Viability %: 61.19%
MCF7 cell line; MCF7, 0.781 µMol
  Toxicity %: 66.75%
  Viability %: 33.25%
MCF7 cell line; MCF7, 1.562 µMol
  Toxicity %: 82.8%
  Viability %: 17.2%
MCF7 cell line; MCF7, 3.125 µMol
  Toxicity %: 91.22%
  Viability %: 8.783%
MCF7 cell line; MCF7, 6.25 µMol
  Toxicity %: 95.14%
  Viability %: 4.861%
MCF7 cell line; MCF7, 12.5 µMol
  Toxicity %: 97.43%
  Viability %: 2.574%
MCF7 cell line; MCF7, 25 µMol
  Toxicity %: 97.06%
  Viability %: 2.941%
A549 cell line; A549, Conc. 0.0487 µMol
  Toxicity %: 0.30%
  Viability %: 99.700%
A549 cell line; A549, Conc. 0.0975 µMol
  Toxicity %: 0.50%
  Viability %: 99.50%
A549 cell line; A549, Conc. 0.195 µMol
  Toxicity %: 0.789%
  Viability %: 99.21%
A549 cell line; A549, Conc. 0.391 µMol
  Toxicity %: 5.089%
  Viability %: 94.91%
A549 cell line; A549, Conc. 0.781 µMol
  Toxicity %: 23.59%
  Viability %: 76.41%
A549 cell line; A549, Conc. 1.562 µMol
  Toxicity %: 38.19%
  Viability %: 61.81%
A549 cell line; A549, Conc. 3.125 µMol
  Toxicity %: 53.18%
  Viability %: 46.82%
A549 cell line; A549, Conc. 6.25 µMol
  Toxicity %: 70.73%
  Viability %: 29.27%
A549 cell line; A549, Conc. 12.5 µMol
  Toxicity %: 89.43%
  Viability %: 10.57%
A549 cell line; A549, Conc. 25 µMol
  Toxicity %: 96.45%
  Viability %: 3.55%
A549 cell line; Homo sapiens, read-out: IC50 ± SD
  IC50: 2469 ± 6 nM
[1]; 0.01 µg/mL
  DPPH scavenging, inhibition (%): 25.58 ± 2.20%
[1]; 0.05 µg/mL
  DPPH scavenging, inhibition (%): 81.39 ± 3.87%
[1]; DPPH
  antioxidant activity compared with Vitamin C: higher result than Vitamin C; also recorded: higher antioxidant activity than Vitamin C
